Results reported in patent US20240336596A1, “PARP7 INHIBITOR AND USE THEREOF” (NOVOSTAR PHARMACEUTICALS, LTD., priority 2022, published 2024).

Each compound was assayed against T1, recombinant human PARP7 protein (Homo sapiens, UniProt Q7Z3E1) (assay: Inhibition of PARP7 biological enzyme activity (histone-coated plate, Biotin-NAD+, chemiluminescence)). Conditions: recombinant human PARP7, Biotin-NAD+ substrate.
T1 construct: purchased Abcam ab271651
T1 sequence (Q7Z3E1 1-657): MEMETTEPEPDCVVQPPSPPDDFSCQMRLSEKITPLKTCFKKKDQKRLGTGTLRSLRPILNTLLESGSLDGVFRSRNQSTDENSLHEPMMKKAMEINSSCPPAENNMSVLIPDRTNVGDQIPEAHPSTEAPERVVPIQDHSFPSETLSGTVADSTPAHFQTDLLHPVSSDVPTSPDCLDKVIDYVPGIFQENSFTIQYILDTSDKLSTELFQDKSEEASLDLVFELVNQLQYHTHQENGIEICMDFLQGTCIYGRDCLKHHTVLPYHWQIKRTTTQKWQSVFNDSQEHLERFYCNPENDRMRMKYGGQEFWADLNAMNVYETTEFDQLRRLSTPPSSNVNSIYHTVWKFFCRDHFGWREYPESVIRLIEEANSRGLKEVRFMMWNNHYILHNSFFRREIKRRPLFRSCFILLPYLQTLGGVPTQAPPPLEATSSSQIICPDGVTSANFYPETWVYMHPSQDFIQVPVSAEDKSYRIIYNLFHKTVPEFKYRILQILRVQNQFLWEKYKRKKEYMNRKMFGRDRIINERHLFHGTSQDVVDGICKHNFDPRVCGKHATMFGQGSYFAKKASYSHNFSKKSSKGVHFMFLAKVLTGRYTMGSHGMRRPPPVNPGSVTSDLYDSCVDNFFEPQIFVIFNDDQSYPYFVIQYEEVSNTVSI
Assay type: biochemical
Procedure: The recombinant human PARP7 protein kit (Abcam, catalog number ab271651) was used for the assay. According to the kit instructions, 30 μL of histone coating solution (1.5 μg/mL) was first applied to the 384 well holes of the reaction plate and coated at 4° C. for 2 hours. Then, the histone coated solution was washed off, and 50 μL sealing buffer was added to each well, and the sealing buffer was washed off after incubation at 25° C. for 60 minutes. 1000 times the concentration of the compound was 10 configured and diluted from 1 mM to 0.05 μM, and the configured compound was transferred to 384-well plates with 25 nL per well using Echo. The final concentration of the compound in the reaction system was 1000 nM, 333.33 nM, 111.11 nM, 37.03 nM, 12.34 nM, 4.11 nM, 1.37 nM, 0.45 nM, 0.15 nM, 0.05 nM, which was used as the test hole. At the same time, 25 nL DMSO was added to the negative control well and the positive control well. The PARP7 enzyme solution with a concentration of 1.67 times was prepared, and the PARP7 enzyme solution was added to the test hole and the positive control hole with 15 μL each, while the negative control hole was added with 15 μL base Buffer, and incubated at 25° C. for 15 minutes. Then 10 μL 2.5 times Biotin-NAD+ substrate solution was added and incubated at 25° C. for 60 min. After the reaction solution was washed off, the 384-well reaction plates were treated with closed buffer solution diluted with streptavidin-HRP (1:500), each well was 30 μL, and incubated at 25° C. for 30 min. After the HRP buffer was washed off, 30 μL HRP chemiluminescent substrate mixture was added to each well, and the luminescence signal (RLU) of each well was detected by Envision. Calculation formula: Inhibition rate %=(average positive control-RLU compound)/(average positive control-average negative control))*100%. The dose-response curves of each compound were fitted by GraphPad Prism 8 to get IC50 values. IC50 values less than 0.01 μM are labeled as “+++”, IC50 values from 0.01 to 0.1 µM are labeled as “++”, and IC50 values greater than 0.1 to 10.0 μM are labeled as “+”.

SMILES | IC50
C[C@@H](CNOCC(=O)N1CCN(c2ncc(C(F)(F)F)cn2)CC1)Nc1cn[nH]c(=O)c1C(F)(F)F [Example 1, (S)-5-((1-((2-oxo-2-(4-(5-(trifluoromethyl)pyrimidin-2-yl)piperazin-1-yl)ethoxy)amino)propan-2-yl)amino)-4-(trifluoromethyl)pyridazin-3(2H)-one] | < 10 nM
C[C@@H](CN(C)OCC(=O)N1CCN(c2ncc(C(F)(F)F)cn2)CC1)Nc1cn[nH]c(=O)c1C(F)(F)F [Example 2, (S)-5-((1-(methyl(2-oxo-2-(4-(5-(trifluoromethyl)pyrimidin-2-yl)piperazin-1-yl)ethoxy)amino)propan-2-yl)amino)-4-(trifluoromethyl)pyridazin-3(2H)-one] | < 10 nM
CCN(C[C@H](C)Nc1cn[nH]c(=O)c1C(F)(F)F)OCC(=O)N1CCN(c2ncc(C(F)(F)F)cn2)CC1 [Example 3, (S)-5-((1-(ethyl(2-oxo-2-(4-(5-(trifluoromethyl)pyrimidin-2-yl)piperazin-1-yl)ethoxy)amino)propan-2-yl)amino)-4-(trifluoromethyl)pyridazin-3(2H)-one] | 10 to 100 nM
C[C@@H](CN(C)OCC(=O)N1CCN(c2ncc(C#N)cn2)CC1)Nc1cn[nH]c(=O)c1C(F)(F)F [Example 4, (S)-2-(4-(2-((methyl(2-((6-oxo-5-(trifluoromethyl)-1,6-dihydropyridazin-4-yl)amino)propyl)amino)oxy)acetyl)piperazin-1-yl)pyrimidine-5-carbonitrile] | 10 to 100 nM

What follows are compounds tested on NCI-H1373 cancer cells (assay: NCI-H1373 cancer cell growth inhibition (CellTiter-Glo, 144 hours)). Conditions: Homo sapiens, 144 hours culture.
Assay type: cell-based
Procedure: Promega CellTiter-Glo cell activity assay kit (Item No.: Promege-G7573) was used to determine the cell activity. 90 μL NCI-H1373 cell suspension (ATCC, catalog No. CRL-5866, batch No. 58078716) was spread into the pores of the 96-well plate with 3500 cells per well. After 24 hours, the 10 μL prepared 10× compound working solution was added into the pores of the cell culture plate with a final concentration of 10 μM. 3.3333 μM, 1.1111 μM, 0.3704 μM, 0.1235 μM, 0.0412 μM, 0.0137 μM, 0.0046 μM, 0.0015 μM, 0.0005 μM, 10 μL DMSO was added to the solvent control, and the final concentration of DMSO was 0.2%. The 0-day plates were collected for analysis, and after 144 hours of culture, the growth condition of cells was detected according to the instructions of CellTiter-Glo cell activity assay kit. Add 50 μL of CellTiter-Glo working liquid into each hole of the cell culture plate, shake the plates in the dark for 2 minutes until cell lysis, and place at room temperature for 10 minutes to detect the luminous signal (RUL) of each cell hole on the 2104En Vision board reader.
Calculation formula: Growth inhibition rate %=(1−(RLU compound−RLU Day0)/(RLU solvent control−RLU Day0))*100%. The dose-response curves of each compound were fitted by GraphPad Prism 8 to obtain IC50 values.
For the matter, IC50 values less than 0.1 μM are labeled “+++”, values from 0.1 to 1 μM are labeled “++”, and values greater than 1 to 10 μM are labeled “+”.

SMILES | IC50
C[C@@H](CONC(=O)C=C1CCN(c2ncc(C(F)(F)F)cn2)CC1)Nc1cn[nH]c(=O)c1C(F)(F)F [Example 20, (S)—N-(2-((6-oxo-5-(trifluoromethyl)-1,6-dihydropyridazin-4-yl)amino)propoxy)-2-(1-(5-(trifluoromethyl)pyrimidin-2-yl)piperidin-4-ylidene)acetamide] | 1000 to 10000 nM
CC1=C(CC(=O)NOC[C@H](C)Nc2cn[nH]c(=O)c2C(F)(F)F)CCN(c2ncc(C3CC3)cn2)C1 [Example 31, (S)-2-(1-(5-cyclopropylpyrimidin-2-yl)-5-methyl-1,2,3,6-tetrahydropyridin-4-yl)-N-(2-((6-oxo-5-(trifluoromethyl)-1,6-dihydropyridazin-4-yl)amino)propoxy)acetamide] | 100 to 1000 nM
C[C@@H](CONC(=O)CC1CCN(c2ccc(C(F)(F)F)cn2)CC1)Nc1cn[nH]c(=O)c1C(F)(F)F [Example 32, (S)—N-(2-((6-oxo-5-(trifluoromethyl)-1,6-dihydropyridazin-4-yl)amino)propoxy)-2-(1-(5-(trifluoromethyl)pyridin-2-yl)piperidin-4-yl)acetamide] | 100 to 1000 nM
C[C@@H](CONC(=O)CC1CCN(c2ccc(C#N)cn2)CC1)Nc1cn[nH]c(=O)c1C(F)(F)F [Example 34, (S)-2-(1-(5-cyanopyridin-2-yl)piperidin-4-yl)-N-(2-((6-oxo-5-(trifluoromethyl)-1,6-dihydropyridazin-4-yl)amino)propoxy)acetamide] | 100 to 1000 nM
C[C@@H](CONC(=O)CC1CCN(c2ncc3c(n2)CCC3=O)CC1)Nc1cn[nH]c(=O)c1C(F)(F)F [Example 42, (S)—N-(2-((6-oxo-5-(trifluoromethyl)-1,6-dihydropyridazin-4-yl)amino)propoxy)-2-(1-(5-oxo-6,7-dihydro-5H-cyclopenta(d)pyrimidin-2-yl)piperidin-4-yl)acetamide] | 1000 to 10000 nM
C[C@@H](CON(C)C(=O)CC1CCN(c2ncc(C(F)(F)F)cn2)CC1)Nc1cn[nH]c(=O)c1C(F)(F)F [Example 45, (S)—N-methyl-N-(2-((6-oxo-5-(trifluoromethyl)-1,6-dihydropyridazin-4-yl)amino)propoxy)-2-(1-(5-(trifluoromethyl)pyrimidin-2-yl)piperidin-4-yl)acetamide] | 1000 to 10000 nM
C[C@@H](CONS(=O)(=O)CC1CCN(c2ncc(C(F)(F)F)cn2)CC1)Nc1cn[nH]c(=O)c1C(F)(F)F [Example 47, (S)—N-(2-((6-oxo-5-(trifluoromethyl)-1,6-dihydropyridazin-4-yl)amino)propoxy)-1-(1-(5-(trifluoromethyl)pyrimidin-2-yl)piperidin-4-yl)methanesulfonamide] | 1000 to 10000 nM
C[C@@H](CONC(=O)C1(C2CCN(c3ncc(C(F)(F)F)cn3)CC2)CC1)Nc1cn[nH]c(=O)c1C(F)(F)F [Example 50, (S)—N-(2-((6-oxo-5-(trifluoromethyl)-1,6-dihydropyridazin-4-yl)amino)propoxy)-1-(1-(5-(trifluoromethyl)pyrimidin-2-yl)piperidin-4-yl)cyclopropanecarboxamide] | 1000 to 10000 nM
CC1CN(c2ncc(C(F)(F)F)cn2)CCC1CC(=O)NOC[C@H](C)Nc1cn[nH]c(=O)c1C(F)(F)F (stereo partly drawn) [Example 52, 2-(3-methyl-1-(5-(trifluoromethyl)pyrimidin-2-yl)piperidin-4-yl)-N—((S)-2-((6-oxo-5-(trifluoromethyl)-1,6-dihydropyridazin-4-yl)amino)propoxy)acetamide] | 1000 to 10000 nM
C[C@@H](CONC(=O)C[C@H]1CCN(c2ncc(C(F)(F)F)cn2)C[C@H]1O)Nc1cn[nH]c(=O)c1C(F)(F)F [Example 54, 2-((3S,4R)-3-hydroxy-1-(5-(trifluoromethyl)pyrimidin-2-yl)piperidin-4-yl)-N—((S)-2-((6-oxo-5-(trifluoromethyl)-1,6-dihydropyridazin-4-yl)amino)propoxy)acetamide] | 1000 to 10000 nM
C[C@@H](CONC(=O)C[C@H]1CCN(c2ncc(C(F)(F)F)cn2)C[C@@H]1O)Nc1cn[nH]c(=O)c1C(F)(F)F [Example 55, 2-((3R,4R)-3-hydroxy-1-(5-(trifluoromethyl)pyrimidin-2-yl)piperidin-4-yl)-N—((S)-2-((6-oxo-5-(trifluoromethyl)-1,6-dihydropyridazin-4-yl)amino)propoxy)acetamide] | 1000 to 10000 nM
C[C@@H](CONC(=O)CN1CCC2(CCN(c3ncc(C(F)(F)F)cn3)CC2)C1)Nc1cn[nH]c(=O)c1C(F)(F)F [Example 56, (S)—N-(2-((6-oxo-5-(trifluoromethyl)-1,6-dihydropyridazin-4-yl)amino)propoxy)-2-(8-(5-(trifluoromethyl)pyrimidin-2-yl)-2,8-diazaspiro(4.5)decan-2-yl)acetamide] | 1000 to 10000 nM
C[C@@H](CONC(=O)CC1CCN(c2ncc3c(n2)CC[C@@]3(C)O)CC1)Nc1cn[nH]c(=O)c1C(F)(F)F [Example 61] | 1000 to 10000 nM
[2H]C(C(=O)NOC[C@H](C)Nc1cn[nH]c(=O)c1C(F)(F)F)C1=CCN(c2ncc(C(F)(F)F)cn2)CC1 (stereo partly drawn) [Example 62] | 1000 to 10000 nM
